Reference: US20210338717A1, “NANOPARTICLE DELIVERY TO A TARGET TISSUE” (THE GOVERNING COUNCIL OF THE UNIVERSITY OF TORONTO, priority 2020, published 2021)

System: 4T1 tumour-bearing BALB/c mice
Conditions: mouse, in vivo

increase in absolute accumulation in the liver: 6000 times | increase in absolute nanoparticle accumulation in tumour: 7,300,000 times | liver accumulation: 16 % injected dose/gram | liver accumulation, large single dose vs same dose divided: reduced | tumour accumulation: 16 % injected dose/gram | tumour delivery, large single dose vs same dose divided: increased
Substance: gold nanoparticles
